Consider three compounds from patent US12441743B2, “Spiro aromatic ring compound and use thereof” (Etern Biopharma (Shanghai) Co., Ltd., priority 2018, dated 2025).

For orientation: bioavailability means dose-corrected exposure relative to a reference, in per cent. The AUC is concentration integrated over time.

Each structure is given as a SMILES string.

One data set concerns MV4-11 cells. The data set can be described thus: MV4-11 cell proliferation inhibition experiment (CellTiter-Glo). The format is cell-based. The following applies: Homo sapiens; MV4-11 cells, 72 h, CellTiter-Glo; read-out: Cell proliferation inhibition activity. Here is the method:
The number of living cells in the culture was determined by quantitative determination of intracellular ATP using CellTiter-Glo® Luminescent Cell Viability Assay kit.
In the first step, MV4-11 cells were inoculated into 96-well plates with a density of 2500 cells per well and a volume of 100 μL per well. The plates were placed in 37° C., 5% carbon dioxide incubator overnight.
In the second step, cells were treated with compounds. The compounds to be tested were diluted 3 times, and 8 concentration gradients were set up. Each well was added with a certain volume of DMSO or the compound to be tested, and each concentration was tested in 2 replicates, and the final concentration of DMSO was 0.5%. The plates were placed in 37° C., 5% carbon dioxide incubator for 72 h.
In the third step, cell viability of the control groups and the treatment groups was determined using CellTiter-Glo® Luminescent Cell Viability Assay kit (Promega, G7570). Each well was added with 50 uL CellTiter-Glo. The culture was mixed well, and incubated at room temperature for 10 min. Signals were read using EnSpire (Perkin Elmer). Inhibition percentages (%) were calculated by the following formula:
Inhibition percentage (%)=(1−signal value of compound treatment group/signal value of DMSO treatment group)*100.

Data set [1] is described as follows: Pharmacokinetics experiment, intragastric single dose. The format is in vivo. The following applies: mouse, plasma, male mice, oral administration dosage 5 mg/Kg; for half-life: read-out: Half-life T1/2 (converted); for Cmax: read-out: Maximum plasma concentration Cmax; for AUC: read-out: Plasma exposure AUC. Here is the method: Pharmacokinetics of the compound of the disclosure was determined. The following method was used to determine the pharmacokinetic parameters of the compound of the disclosure. Healthy male adult mice were used in the study. Each group was intragastrically administered with a single dose of 5-100 mg/kg. Fasting lasted from 10 hours before administration to 4 hours after administration. Blood samples were collected at different time points after administration and the compound content in plasma was determined by LC-MS/MS. The relationship between plasma concentration and time was analyzed by professional software (winnonlin), and the pharmacokinetic parameters of the compounds were calculated. According to Table 3, the compounds of the disclosure have excellent pharmacokinetic properties.

Another data set concerns the target T1, SHP2 E76A protein (Homo sapiens, UniProt Q06124, E76A).
T1 sequence (Q06124 1-593 E76A): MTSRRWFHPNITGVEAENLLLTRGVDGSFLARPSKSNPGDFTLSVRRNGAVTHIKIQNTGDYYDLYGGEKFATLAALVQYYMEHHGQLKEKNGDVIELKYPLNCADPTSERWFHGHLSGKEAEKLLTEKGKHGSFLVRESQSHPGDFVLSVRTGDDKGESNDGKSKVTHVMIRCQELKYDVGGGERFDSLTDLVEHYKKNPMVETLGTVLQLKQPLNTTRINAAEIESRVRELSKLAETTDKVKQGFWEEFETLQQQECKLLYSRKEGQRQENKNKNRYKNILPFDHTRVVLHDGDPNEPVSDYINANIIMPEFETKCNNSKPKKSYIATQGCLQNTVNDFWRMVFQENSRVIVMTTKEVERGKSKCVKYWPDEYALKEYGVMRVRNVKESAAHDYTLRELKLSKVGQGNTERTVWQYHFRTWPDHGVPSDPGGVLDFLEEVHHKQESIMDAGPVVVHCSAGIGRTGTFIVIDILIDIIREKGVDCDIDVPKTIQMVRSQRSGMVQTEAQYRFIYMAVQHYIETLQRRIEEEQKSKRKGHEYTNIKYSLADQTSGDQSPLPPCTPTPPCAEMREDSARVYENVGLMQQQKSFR
Briefly: SHP2 enzyme activity inhibition test (DiFMUP substrate, fluorescence). The format is biochemical. The following applies: 50 ng SHP2 E76A, 20 min with compound, then 10 uM DiFMUP 20 min at room temperature.

With `Nc1nccc(Sc2cnc(N3CCC4(CC3)Cc3ccncc3[C@H]4N)n3cnnc23)c1Cl` [Compound 7, (5)-1′-(8-((2-amino-3-chloropyridin-4-yl)thio)-[1,2,4]triazolo[4,3-c]pyrimidin-5-yl)-5,7-dihydrospiro[cyclopenta[c]pyridine-6,4′-piperidine]-7-amine], the IC50 in the data set with MV4-11 cells is 29 nM. Also, in data set [1], the bioavailability stood at 98%, the half-life was 3 h, the Cmax worked out at 7.5 µM and the exposure (AUC) turned out to be 43 µM·h. At SHP2 E76A protein, the IC50 was 3 nM.

In the case of `Nc1nccc(Sc2cnc(N3CCC4(CC3)Cc3cccnc3[C@H]4N)n3ccnc23)c1Cl` [Compound 10, (S)-1′-(8-((2-amino-3-chloropyridin-4-yl)thio)imidazo[1,2-c]pyrimidin-5-yl)-5,7-dihydrospiro[cyclopenta[b]pyridine-6,4′-piperidine]-7-amine], the IC50 in the data set with MV4-11 cells amounted to 7 nM. In data set [1], the bioavailability was 51%, the half-life is 3.8 h, the Cmax was determined as 5 µM and the AUC stood at 48 µM·h. Besides, the IC50 on SHP2 E76A protein stood at 3 nM.

For `Nc1nccc(Sc2cnc(N3CCC4(CC3)Cc3nccnc3[C@H]4N)n3ccnc23)c1Cl` [Compound 18, (S)-1′-(8-((2-amino-3-chloropyridin-4-yl)thio)imidazo[1,2-c]pyrimidin-5-yl)-5,7-dihydrospiro[cyclopenta[b]pyrazine-6,4′-piperidine]-5-amine], the IC50 in the data set on MV4-11 cells is 42 nM. In data set [1], the bioavailability was 72%, the half-life was 3.5 h, the Cmax stood at 6.5 µM and the exposure (AUC) came to 40 µM·h. The IC50 at SHP2 E76A protein is 7 nM.
